Data published in BindingDB's records for doi:10.1016/j.bmcl.2018.05.060 (Universidad De Granada, 2018).

Target: Choline kinase alpha (Homo sapiens, UniProt P35790)
Assay: Inhibition of human choline kinase alpha1 using [methyl-14C]choline as substrate assessed as reduction in rate of incorporation of 14C from [methyl-14C]choline into phosphocholine preincubated for 5 mins followed by substrate addition measured after 10 mins by scintillation counting

Sequence of Choline kinase alpha (P35790 whole entry): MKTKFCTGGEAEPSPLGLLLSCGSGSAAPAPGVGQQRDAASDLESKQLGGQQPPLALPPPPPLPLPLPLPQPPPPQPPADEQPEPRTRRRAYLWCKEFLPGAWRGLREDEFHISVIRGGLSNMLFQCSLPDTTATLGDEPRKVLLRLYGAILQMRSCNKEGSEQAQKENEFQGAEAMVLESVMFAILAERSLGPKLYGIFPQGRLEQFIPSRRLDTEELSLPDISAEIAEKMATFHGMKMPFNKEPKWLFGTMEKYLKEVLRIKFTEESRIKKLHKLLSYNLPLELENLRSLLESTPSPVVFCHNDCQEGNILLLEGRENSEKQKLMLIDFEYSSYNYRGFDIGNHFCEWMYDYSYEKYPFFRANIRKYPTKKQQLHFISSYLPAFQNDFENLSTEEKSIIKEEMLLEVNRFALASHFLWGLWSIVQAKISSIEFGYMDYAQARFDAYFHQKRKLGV

IC50: 6.85 µM
SMILES: CN(c1ccccc1)c1cc[n+](Cc2ccc(OCCOc3ccc(C[n+]4ccc(N(C)c5ccccc5)c5ccccc54)cc3)cc2)c2ccccc12
